Assay: Hygroscopicity of the isolated solid on exposure to air
Type: physicochemical
Details: light yellow foamy solid from Method 1; turns into gummy residue on exposure to air
Procedure: Method 1: Metformin free base (1.29 g, 0.010 mol) was taken in methanol (15 mL) and while stirring L-Glutamic acid (0.74 g, […]) was added as solid. Lipoic acid (1.03 g, […]) was separately dissolved in methanol (15 mL) and added to this mixture through a in-line syringe filter (to remove polymeric material, if any). The mixture was continued to stir for 30 min. […] Metformin.L-Glutamic acid.R-Lipoic acid salt (2.9 g) was obtained as light yellow foamy solid. […] The residue was suspended in acetonitrile (30 mL) and stirred for 18 h. Filtered the pale yellow solid and dried in vacuum for 16 h to get 2.32 g of 3. ^1H NMR (200 MHz, D2O) δ 1.15-2.1 (10H, m), δ 2.1-2.42 (5H, m), δ2.88 (12H, s), δ 2.95-3.12 (1H, m) δ 3.48-3.62 (2H, m); ^13C NMR (200 MHz, D2O) δc 25.86, 27.25, 28.68, 33.81, 34.14, 37.66, 38.34, 40.51, 54.95, 56.93, 158.63, 160.28, 174.80, 181.44, 183.81.

With “metformin-L-glutamic acid-R (+) lipoic acid salt” the hygroscopicity was “high hygroscopic”.
